Values of other authors as cited in US9555003B2, “Oral solid formulation of compound anti-tubercular drug and preparation method thereof” (priority 2011, dated 2017).
Values after ≈ are worked out from the molar mass of the structure shown.

How the values were obtained:
[1] = not given; remark: listed apart in the source

| SMILES | solubility in water | Vd ([1]; in vivo) [L/kg] | protein binding rate ([1]; in vivo) | oral absorption rate ([1]; oral) [%] | time to peak serum drug concentration after administration ([1]; oral) [h] | solubility in ethanol | solubility in ethyl ether | intra-cellular concentration for inhibiting tubercle bacillus relative to extracellular concentration (tubercle bacillus; folds lower than the extracellular concentration) [folds] | concentration at which tubercle bacillus is eliminated (tubercle bacillus; tubercle bacillus) [µg/mL] | minimum inhibitory concentration (tubercle bacillus; tubercle bacillus) [µg/mL] |
| --- | --- | --- | --- | --- | --- | --- | --- | --- | --- | --- |
| CC[C@H](CO)NCCN[C@H](CC)CO.Cl.Cl [Ethambutol hydrochloride] | easily soluble | – | – | – | – | – | – | – | – | – |
| NNC(=O)c1ccncc1 [Isoniazid, 4-pyridylcarbonylhydrazine] | easily soluble | 0.61 ± 0.11 | very low | 90 | 1 to 2 | slightly soluble | very slightly soluble | – | – | – |
| NC(=O)c1cnccn1 [Pyrazinamide] | slightly soluble | – | – | – | – | slightly soluble | very slightly soluble | 10 | 50 | 12.5 (≈ 102 µM) |
| CO[C@H]1/C=C/O[C@@]2(C)Oc3c(C)c(O)c4c(O)c(c(/C=N/N5CCN(C)CC5)c(O)c4c3C2=O)NC(=O)/C(C)=C\C=C\[C@H](C)[C@H](O)[C@@H](C)[C@@H](O)[C@@H](C)[C@H](OC(C)=O)[C@@H]1C [Rifampicin] | poorly soluble | – | – | – | – | – | – | – | – | – |
